Legend:
CXCR3 = biological target: T1, CXCR3 (Homo sapiens, UniProt P49682); assay: NanoBRET screen HiBiT-CXCR3 in HEK293; type: binding
T1 construct: purchased Promega (in-house HiBiT-GPCR construct library, NanoBRET)
T1 sequence (P49682 1-368): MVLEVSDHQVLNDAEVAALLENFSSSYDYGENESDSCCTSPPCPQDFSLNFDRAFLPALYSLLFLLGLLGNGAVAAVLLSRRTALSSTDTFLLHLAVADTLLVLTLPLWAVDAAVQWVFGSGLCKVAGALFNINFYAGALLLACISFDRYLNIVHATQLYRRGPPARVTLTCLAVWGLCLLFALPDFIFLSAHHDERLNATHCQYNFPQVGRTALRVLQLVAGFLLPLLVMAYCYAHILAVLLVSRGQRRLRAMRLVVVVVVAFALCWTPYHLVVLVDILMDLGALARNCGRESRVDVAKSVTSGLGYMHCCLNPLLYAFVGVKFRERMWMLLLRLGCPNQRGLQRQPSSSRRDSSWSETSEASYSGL
Description: (§1) Each tracer candidate was screened across the entire library of HiBiT-GPCR constructs using NanoBRET as the detection modality. As depicted in Figure 4A, the specificity of interactions was evaluated through decrease in BRET due to competitive displacement of a bound tracer by excess parental compound. Each tracer was analyzed for binding to each HiBiT-GPCR fusion in the absence and in the presence of competing parental compound. Briefly, HEK293 cells were transfected with HiBiT-GPCR constructs diluted into promoterless DNA to reduce expression and maximize translocation to the cell surface. Each tracer candidate was then screened at concentrations of 1 μM and 0.1 μM across cells expressing these fusions. Cells were treated for 1.5 h with tracer either alone or in the presence of 20 μM competing parental compound (i.e., control). BRET was measured upon addition of purified LgBiT and subsequent complementation with HiBiT genetically fused to a GPCR. The specificity of interactions was assessed through a decrease in BRET signal due to competitive displacement of the bound tracer. To further gauge the robustness of these interactions, the fold response over the control (i.e., BRETtracer/BRETcontrol) was calculated. We chose a 1.5-fold response, which translates to ≥7-fold signal over noise as the minimal threshold required to score an interaction as positive. […]. Below we highlight the screening results obtained for our exemplary fluorescent tracers based on Clozapine, Amitriptyline and AZD1283.
(§2) HiBiT-GPCR DNA constructs were diluted in 10 mM Tris pH 8 to a final concentration of 0.01 μg/μL, arrayed in 96-well plates and stored at −20 °C. For transfection, HEK293 cells were suspended in Opti-MEM (without phenol red) supplemented with 2% fetal bovine serum (Seradigm) and 100 units/mL penicillin–streptomycin (Gibco) at a final concentration of 220,000 cells/mL and dispensed into white 96-well plates at 90 μL/well. Subsequent transfections and screens were carried using an Agilent Bravo Automated Liquid Handling Platform. First, the 96-well HiBiT DNA arrays were diluted 25-fold in Opti-MEM (without serum or phenol red) to a final concentration of 0.0004 μg/μL and 20 μL of the diluted DNAs were transferred into new 96-well plates. Next, promoterless carrier DNA (1 μg/μL) was diluted 25-fold (0.04 μg/μL) and then dispensed into the diluted arrays at 20 μL/well. Following brief mixing, Viafect transfection reagent (Promega) diluted 16-fold into Opti-MEM was dispensed into the plates at 40 μL/well. After mixing by pipetting, plates were incubated for 10 min on the pipetting station deck. The DNA-transfection reagent complexes were then added to plates containing cells. To facilitate the screen, 10 μL of DNA-transfection reagent complexes were added in duplicates to the top 4 and bottom 4 rows, resulting in two identical 48-well arrays per plate. Plates with transfected cells were incubated for 18–20 h at 37 °C/5% CO2. A screen of each tracer across the entire library using two different concentrations requires duplicate plates of transfected cells. Depending on the number of tracers being screened, transfections can be scaled up using the same ratios. The next day, for each tracer, four 20× screening solutions in tracer dilution buffer (Promega) were prepared: two duplicates at final concentration of 20 μM and two duplicates at a final concentration of 2 μM. A competing unmodified compound was added to one of each duplicate at a final concentration of 400 μM. The four resulting solutions were diluted 4-fold in Opti-MEM without serum or phenol red to generate 5× solutions (5 µM and 0.5 µM tracer +/− 100 μM competing compound). To screen the library, a BioTek MultiFlo FX liquid dispenser was used to dispense 22.5 µL of tracer solution to the top 4 rows and 22.5 µL tracer + competing compound solution to the 4 bottom rows. Plates were briefly mixed on an orbital shaker and incubated for 1.5 h at room temperature. […]

CCKAR = biological target: T2, CCKAR (Homo sapiens, UniProt P32238); assay: NanoBRET screen HiBiT-CCKAR in HEK293; type: binding
T2 construct: purchased Promega (in-house HiBiT-GPCR construct library, NanoBRET)
T2 sequence (P32238 1-428): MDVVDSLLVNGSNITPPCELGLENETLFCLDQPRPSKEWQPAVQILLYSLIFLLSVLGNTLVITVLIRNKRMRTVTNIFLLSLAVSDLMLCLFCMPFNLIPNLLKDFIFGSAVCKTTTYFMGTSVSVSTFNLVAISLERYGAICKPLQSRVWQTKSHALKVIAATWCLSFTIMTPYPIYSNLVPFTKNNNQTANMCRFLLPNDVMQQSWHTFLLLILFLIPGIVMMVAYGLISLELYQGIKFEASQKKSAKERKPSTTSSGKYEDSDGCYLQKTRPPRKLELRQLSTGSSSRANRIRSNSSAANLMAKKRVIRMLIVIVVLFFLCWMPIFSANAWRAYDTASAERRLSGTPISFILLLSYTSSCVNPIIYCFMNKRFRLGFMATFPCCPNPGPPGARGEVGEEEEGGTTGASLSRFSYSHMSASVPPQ
Description: as §1, §2

[1] = tracer at 0.1μM, listed as amitriptyline-b-2-NB590
[2] = tracer at 1μM, listed as amitriptyline-b-2-NB590

Compound | NanoBRET Fold Response (CXCR3; CXCR3, tracer 0.1μM) | NanoBRET Fold Response (CXCR3; CXCR3, tracer 1μM) | NanoBRET Fold Response (CCKAR; CCKAR, tracer 0.1μM) | NanoBRET Fold Response (CCKAR; CCKAR, tracer 1μM) | further results
CN1CCN(C2=Nc3cc(Cl)ccc3Nc3ccc(CNC(=O)CCOCCOCCOCCOCCNC(=O)CCc4ccc5n4[B-](F)(F)[N+]4=C(c6ccc[nH]6)C=CC4=C5)cc32)CC1 [Clozapine-b-2-NB590] |  |  |  |  | NanoBRET Fold Response (CXCR3; CXCR3, 0.1μM tracer): 0.97; NanoBRET Fold Response (CXCR3; CXCR3, 1μM tracer): 0.94; NanoBRET Fold Response (CCKAR; CCKAR, 0.1μM tracer): 1.02; NanoBRET Fold Response (CCKAR; CCKAR, 1μM tracer): 0.88
CN(C)CCC=C1c2ccccc2CCc2ccc(C(=O)NCCNC(=O)CCOCCOCCOCCOCCNC(=O)CCc3ccc4n3[B-](F)(F)[N+]3=C(c5ccc[nH]5)C=CC3=C4)cc21 [Amitriptyline-b-2-NB590] |  |  |  |  | NanoBRET Fold Response (CXCR3; [1]): 1.05; NanoBRET Fold Response (CXCR3; [2]): 0.98; NanoBRET Fold Response (CCKAR; [1]): 1.11; NanoBRET Fold Response (CCKAR; [2]): 0.98
CCOC(=O)c1cc(C#N)c(N2CCC(C(=O)NS(=O)(=O)Cc3ccccc3/C=C/C(=O)NCCNC(=O)CCc3ccc4n3[B-](F)(F)[N+]3=C(c5ccc[nH]5)C=CC3=C4)CC2)nc1C [AZD1283-1-NB590] |  |  |  |  | NanoBRET Fold Response (CXCR3; CXCR3, 0.1μM): 0.98; NanoBRET Fold Response (CXCR3; CXCR3, 1μM): 1.17; NanoBRET Fold Response (CCKAR; CCKAR, 0.1μM): 1.08; NanoBRET Fold Response (CCKAR; CCKAR, 1μM): 1.11
CC(C)N(CC[C@H](c1ccccc1)c1cc(CCNC(=O)CCOCCOCCOCCOCCNC(=O)CCc2ccc3n2[B-](F)(F)[N+]2=C(c4ccc[nH]4)C=CC2=C3)ccc1O)C(C)C [Tolterodine-2-NB590] | 1.87 | 1.01 | 1.01 | 1.01 | 
CC(C)N(CC[C@H](c1ccccc1)c1cc(CCNC(=O)c2ccc(CNC(=O)CCc3ccc4n3[B-](F)(F)[N+]3=C(c5ccc[nH]5)C=CC3=C4)cc2)ccc1O)C(C)C [Tolterodine-BZ-NB590] | 1.11 | 0.96 | 1.05 | 1.03 | 
O=C(CCOCCOCCOCCOCCNC(=O)CCc1ccc2n1[B-](F)(F)[N+]1=C(c3ccc[nH]3)C=CC1=C2)NCCCN1CCN(C2=Nc3ccccc3Oc3ccc(Cl)cc32)CC1 [Loxapine-a-2-NB590] | 1.04 | 1.26 | 1.02 | 0.99 | 
CN1CCN(C2=Nc3cc(Cl)ccc3N(CC(=O)NCCOCCOCCOCCOCCNC(=O)CCc3ccc4n3[B-](F)(F)[N+]3=C(c5ccc[nH]5)C=CC3=C4)c3ccccc32)CC1 [Clozapine-c-2-NB590] |  |  |  |  | NanoBRET Fold Response (CXCR3; CXCR3, 0.1μM tracer): 1.01; NanoBRET Fold Response (CXCR3; CXCR3, 1μM tracer): 0.76; NanoBRET Fold Response (CCKAR; CCKAR, 0.1μM tracer): 1.01; NanoBRET Fold Response (CCKAR; CCKAR, 1μM tracer): 0.74
CN(C)CCC=C1c2ccccc2CCc2ccc(C(=O)NCCNC(=O)CCOCCOCCOCCOCCNC(=O)CCc3ccc4n3[B-](F)(F)[N+]3=C(c5ccc[nH]5)C=CC3=C4)cc21 [Amitriptyline-a-2-NB590] |  |  |  |  | NanoBRET Fold Response (CXCR3; tracer at 0.1μM): 1.00; NanoBRET Fold Response (CXCR3; tracer at 1μM): 0.97; NanoBRET Fold Response (CCKAR; tracer at 0.1μM): 1.03; NanoBRET Fold Response (CCKAR; tracer at 1μM): 1.00
Cc1nc2n(c(=O)c1CCN1CCC(c3noc4cc(F)ccc34)CC1)CCCC2OC(=O)NCCOCCOCCOCCOCCNC(=O)CCc1ccc2n1[B-](F)(F)[N+]1=C(c3ccc[nH]3)C=CC1=C2 (stereo not shown) [Risperidone-2-NB590] | 1.06 | 0.91 | 1.20 | 0.99 | 
COc1ccc2[nH]c(-c3ccc(CNC(=O)CCOCCOCCOCCOCCNC(=O)CCc4ccc5n4[B-](F)(F)[N+]4=C(c6ccc[nH]6)C=CC4=C5)cc3)c(CCNC(C)=O)c2n1 [AzomelatoninICO9-2-NB590] |  |  |  |  | NanoBRET Fold Response (CXCR3; 0.1μM tracer): 0.79; NanoBRET Fold Response (CXCR3; 1μM tracer): 0.91; NanoBRET Fold Response (CCKAR; 0.1μM tracer): 1.06; NanoBRET Fold Response (CCKAR; 1μM tracer): 1.04
COc1ccccc1N1CCN(CCCCN2C(=O)c3ccc(CNC(=O)CCOCCOCCOCCOCCNC(=O)CCc4ccc5n4[B-](F)(F)[N+]4=C(c6ccc[nH]6)C=CC4=C5)cc3C2=O)CC1 [NAN-190-2-NB590] | 0.94 |  | 0.98 | 0.96 | 
O=C(CCc1ccc2n1[B-](F)(F)[N+]1=C(c3ccc[nH]3)C=CC1=C2)NCCOCCOCCNC(=O)OCCOCCN1CCN(C2=Nc3ccccc3Sc3ccccc32)CC1 [Quetiapine-a-2-NB590] | 1.00 | 1.14 | 1.04 | 0.94 | 
O=C(CCOCCOCCOCCOCCNC(=O)CCc1ccc2n1[B-](F)(F)[N+]1=C(c3ccc[nH]3)C=CC1=C2)NCCCN1CCN(C2=Nc3cc(Cl)ccc3Nc3ccccc32)CC1 [Clozapine-a-2-NB590] |  |  |  |  | NanoBRET Fold Response (CXCR3; CXCR3, 0.1μM tracer): 1.02; NanoBRET Fold Response (CXCR3; CXCR3, 1μM tracer): 1.22; NanoBRET Fold Response (CCKAR; CCKAR, 0.1μM tracer): 1.01; NanoBRET Fold Response (CCKAR; CCKAR, 1μM tracer): 0.85
N#CN=C(NCCCOc1cccc(CN2CCCCC2)c1)NCCNC(=O)CCOCCOCCOCCOCCNC(=O)CCc1ccc2n1[B-](F)(F)[N+]1=C(c3ccc[nH]3)C=CC1=C2 [Aminopotentidine-2-NB590] | 1.33 | 1.05 | 0.98 | 1.04 | 
O=C(CCc1ccc2n1[B-](F)(F)[N+]1=C(c3ccc[nH]3)C=CC1=C2)NCc1ccc(C(=O)NCCOCCOCCNCC(O)COc2cccc3ccccc23)cc1 (stereo not shown) [Propranolol-3-NB590] |  |  |  |  | NanoBRET Fold Response (CXCR3; CXCR3, 0.1μM): 0.99; NanoBRET Fold Response (CXCR3; CXCR3, 1μM): 0.90; NanoBRET Fold Response (CCKAR; CCKAR, 0.1μM): 0.99; NanoBRET Fold Response (CCKAR; CCKAR, 1μM): 0.98
O=C(CCc1ccc2n1[B-](F)(F)[N+]1=C(c3ccc[nH]3)C=CC1=C2)NCc1ccc(C(=O)NCCOCCC(=O)N[C@@H]2CC[C@@]3(O)[C@H]4Cc5ccc(O)c6c5[C@@]3(CCN4CC3CC3)[C@H]2O6)cc1 [Naltrexone-3-NB590] | 1.39 | 0.78 | 1.10 | 1.05 | 
COc1ccccc1N1CCN(CCCCN2C(=O)c3ccc(CNC(=O)CCOCCNC(=O)c4ccc(CNC(=O)CCc5ccc6n5[B-](F)(F)[N+]5=C(c7ccc[nH]7)C=CC5=C6)cc4)cc3C2=O)CC1 [NAN-190-3-NB590] | 0.97 | 1.01 | 0.98 | 0.99 | 

Reference: paper PMC8151276, “An Integrated Approach toward NanoBRET Tracers for Analysis of GPCR Ligand Engagement” (Molecules, 2021)
